This is an account of results in US7820379B2, “Process for high throughput screening of CpG-based immuno-agonist/antagonist” (Coley Pharmaceutical GmbH, priority 2000, dated 2010).

pEC50: −log10 of the molar value. Some results are limits rather than exact numbers.

The first series concerns the target T1, murine TLR9 (Mus musculus, UniProt Q9EQU3, L378S/Q579H/T325N/T573A/T867A).
T1 construct: additional primers were designed for amplification of the complete mouse TLR9 cDNA; expressed in transfected cells
T1 sequence (Q9EQU3 26-1032 T325N/L378S/T573A/Q579H/T867A): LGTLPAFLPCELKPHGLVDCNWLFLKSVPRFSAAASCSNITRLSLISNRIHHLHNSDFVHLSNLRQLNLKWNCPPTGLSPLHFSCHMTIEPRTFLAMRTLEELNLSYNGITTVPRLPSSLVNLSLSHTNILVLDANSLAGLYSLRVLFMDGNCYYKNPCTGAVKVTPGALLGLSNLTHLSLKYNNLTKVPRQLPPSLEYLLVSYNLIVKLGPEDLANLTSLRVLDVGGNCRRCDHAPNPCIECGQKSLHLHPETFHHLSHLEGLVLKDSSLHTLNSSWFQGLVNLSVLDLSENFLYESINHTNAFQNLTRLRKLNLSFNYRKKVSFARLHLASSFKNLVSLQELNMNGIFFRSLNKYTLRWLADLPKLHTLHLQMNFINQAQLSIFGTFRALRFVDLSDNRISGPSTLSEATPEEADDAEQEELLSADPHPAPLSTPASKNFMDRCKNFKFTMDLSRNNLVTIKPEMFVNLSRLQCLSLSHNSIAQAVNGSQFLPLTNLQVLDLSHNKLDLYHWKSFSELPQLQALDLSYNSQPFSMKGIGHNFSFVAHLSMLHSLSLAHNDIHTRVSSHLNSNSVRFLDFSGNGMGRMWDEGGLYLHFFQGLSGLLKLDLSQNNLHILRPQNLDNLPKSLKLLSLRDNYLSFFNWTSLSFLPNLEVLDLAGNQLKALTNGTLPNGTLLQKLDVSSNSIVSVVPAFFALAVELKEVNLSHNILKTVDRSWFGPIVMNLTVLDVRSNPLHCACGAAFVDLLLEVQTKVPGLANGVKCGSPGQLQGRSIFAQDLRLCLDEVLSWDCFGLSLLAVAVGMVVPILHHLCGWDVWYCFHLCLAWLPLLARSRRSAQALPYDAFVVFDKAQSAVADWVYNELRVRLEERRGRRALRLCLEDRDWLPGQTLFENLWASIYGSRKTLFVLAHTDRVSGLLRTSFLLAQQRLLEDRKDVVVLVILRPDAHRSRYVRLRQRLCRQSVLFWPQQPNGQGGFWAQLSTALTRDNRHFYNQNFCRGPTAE
In words: NF-κB-luciferase activation in 293 cells transfected with murine TLR9 (293-mTLR9-luc). The format is cell-based. The conditions noted are these: CpG-ODN 1668 compared with CpG-ODN 2006. An excerpt:
Human fibroblast 293 cells were transiently transfected with mTLR9 and the NF-κB-luc construct (FIG. 2). Similar data was obtained for IL-8 production (not shown). Thus expression of TLR9 (human or mouse) in 293 cells results in a gain of function for CpG-DNA stimulation similar to hTLR4 reconstitution of LPS responses.
To generate stable clones expressing human TLR9, murine TLR9, or either TLR9 with the NF-κB-luc reporter plasmid, 293 cells were transfected in 10 cm plates (2×10^6 cells/plate) with 16 μg of DNA and selected with 0.7 mg/ml G418 (PAA Laboratories GmbH, Cölbe, Germany). The clones were also screened for IL-8 production or NF-κB-luciferase activity after stimulation with ODN. Four different types of clones were generated. • 293-hTLR9-luc: expressing human TLR9 and 6-fold NF-κB-luciferase reporter • 293-mTLR9-luc: expressing murine TLR9 and 6-fold NF-κB-luciferase reporter • 293-hTLR9: expressing human TLR9 • 293-mTLR9: expressing murine TLR9
Similar results were obtained utilizing IL-8 production with the stable clone 293-hTLR9. 293-mTLR9-luc were also stimulated with CpG-ODN (1668, 2 μM; […], SEQ ID NO:84), GpC-ODN (1668-GC, 2 μM; […], SEQ ID NO:85), Me-CpG-ODN (1668 methylated, 2 μM; TCCATGAZGTTCCTGATGCT, Z=5-methylcytidine, SEQ ID NO:207), LPS (100 ng/ml) or media, as measured by monitoring NF-κB activation (FIG. 5). Similar results were obtained utilizing IL-8 production with the stable clone 293-mTLR9. Results are representative of at least two independent experiments. […] These cells can be used for screening of optimal ligands for innate immune responses driven by TLR9 in multiple species.
Because stable TLR9 transfectants mirrored primary cell responsiveness to CpG-DNA (FIGS. 4 and 5), it was hypothesized that stable transfectants could potentially discern species-specific CpG-motifs through TLR9 receptors. Therefore 293-hTLR9-luc (expressing human TLR9 and 6-fold NF-κB-luc reporter), 293-mTLR9-luc (expressing murine TLR9 and 6-fold NF-κB-luc reporter), 293-hTLR9 (expressing human TLR9) and 293-mTLR9 (expressing murine TLR9) clones were tested for CpG-DNA motif responsiveness. […] Depicted are both NF-κB-driven luciferase and IL-8 production as readout. […] After lysis of the cells luciferase can be detected photometrically based on an enzymatic reaction by luciferase which creates photons. IL-8 production was monitored using enzyme-linked immunosorbent assay (ELISA). […] Results shown in FIG. 11 are representative of three independent experiments. Strikingly, CpG-motif sequence specificity was conferred in a species-specific manner by TLR9. Additionally, the half-maximal concentration for either 2006 or 1668 appears nearly the same as those determined on primary cells (compare FIG. 10 and FIG. 11).
Although 2006 and 1668 are discussed in terms of CpG-motif differences, they are very different in several aspects (see Table 5 for comparison). The lengths are different, 24 versus 20 nucleotides, and 2006 has four CG dinucleotides compared to one in 1668. Additional differences are the CG position relative to the 5′ and 3′ ends and also 5′ sequence differences. In order to determine if motif specificity is a quality of the motif and not the global sequence environment, for this experiment several sequences were produced holding these variables constant. As a starting point, the 1668 sequence was modified by converting the central C to T and the distal TG to CG, thereby creating a second CG in the resulting sequence 5000 (SEQ ID NO:130, Table 5). Then point nucleotide changes were made, progressing toward a 2006-like sequence, 5007 (SEQ ID NO:98). The ODN 5002 (SEQ ID NO:132) is most like 1668 with the exception that C's at positions 12 and 19 have been converted to T's. […]
Regarding “TCCATGACGTTCCTGATGCT (listed as DNA, chemistry not fully specified) [ODN 1668]”, the “murine TLR9 signaling response” value is reported as “significantly stronger”.

The series is the same for the next values; noted with them: ODN concentration of half-maximal activation; 293-mTLR9-luc cells, NF-κB-driven luciferase readout, 12 hours; read-out: 293-mTLR9 Kac.
For TCGTCGTTTTGTCGTTTTGTCGTT [ODN 2006], the pEC50 was under 5.00.
Same read-out and setting: next, “TCCATGTCGTTTTTGTCGTT (listed as DNA, chemistry not fully specified) [ODN 5007]”: 6.00; “TCCATGTCGTTTTTGATGTT (listed as DNA, chemistry not fully specified) [ODN 5005]”: 5.70.
Still for that read-out and setting: next, “TCCATGTCGTTTTTGTTGTT (listed as DNA, chemistry not fully specified) [ODN 5006]”: 6.19; “TCCATGAGCTTCCTGATGCT (listed as DNA, chemistry not fully specified) [ODN 1668-GC]”: under 5.00; “TCCATGACGTTCTTGACGCT (listed as DNA, chemistry not fully specified) [ODN 5000]”: 7.09.
Still for that read-out and setting: then “TCCATGACGTTCTTGACGTT (listed as DNA, chemistry not fully specified) [ODN 5001]”, with 7.26; and “TGCTGCTTTTGTGCTTTTGTGCTT (listed as DNA, chemistry not fully specified) [ODN 2006-GC]”, with under 5.00.
For “TCCATGACGTTCCTGATGCT (listed as DNA, chemistry not fully specified) [ODN 1668]”, the pEC50 is 7.15.
For the sequence “TCCATGTCGTTCTTGATGTT (listed as DNA, chemistry not fully specified) [ODN 5004]”, the pEC50 was 6.40.
